The values that follow come from PubChem BioAssay (NCI).

Each structure is given as a SMILES string.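 Growth conditions: 96-well plates. Treatment: test compound, 48 hours, 5 concentrations. Analysis: linear interpolation between bracketing concentrations; unreached endpoints set to highest concentration. At the TGI there is no net growth.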 Where only a bound is given, the exact number is not on record here.

For orientation: TGI means the concentration giving total growth inhibition.

One assay has as its system HL-60(TB) leukemia. Briefly: DTP human tumour cell line panel, 48 h.
Molecule `COc1ccc(Nc2nc(NS(=O)(=O)c3cc(C)c(Cl)cc3S)n[nH]2)cc1` registered a TGI of over 100 µM.

The next assay deals with HOP-62 NSCLC. In words: DTP human tumour cell line panel, 48 h.
In turn, `CC(=O)O[C@H]1CC[C@@]2(C)C(=CC[C@H]3[C@@H]4C[C@H](N5CCCC5)[C@H](OC(C)=O)[C@@]4(C)CC[C@@H]32)C1` displayed a TGI of over 100 µM.
Take `CC1=NN2C(=N)/C(=C/c3ccco3)C(=O)N=C2S1`: the TGI is over 100 µM.
For the molecule `COc1cccc(C2CC(C)=Nc3c(ccc4c3C(=O)c3ccccc3C4=O)N2)c1O` (centres undefined), the TGI was over 100 µM.
In turn, `COc1ccc(Nc2nc(NS(=O)(=O)c3cc(C)c(Cl)cc3S)n[nH]2)cc1` showed a TGI of over 100 µM.

The next assay concerns HOP-92 NSCLC. In words: DTP human tumour cell line panel, 48 h.
`CC(=O)O[C@H]1CC[C@@]2(C)C(=CC[C@H]3[C@@H]4C[C@H](N5CCCC5)[C@H](OC(C)=O)[C@@]4(C)CC[C@@H]32)C1` came in with a TGI of over 100 µM.
In turn, `CC1=NN2C(=N)/C(=C/c3ccco3)C(=O)N=C2S1` yielded a total growth inhibition concentration (TGI) of over 100 µM.
As to `COc1cccc(C2CC(C)=Nc3c(ccc4c3C(=O)c3ccccc3C4=O)N2)c1O` (centres undefined), the TGI is over 100 µM.
In the case of `COc1ccc(Nc2nc(NS(=O)(=O)c3cc(C)c(Cl)cc3S)n[nH]2)cc1`, the TGI is over 100 µM.

A further assay concerns HS 578T breast. In words: DTP human tumour cell line panel, 48 h.
`CC(=O)O[C@H]1CC[C@@]2(C)C(=CC[C@H]3[C@@H]4C[C@H](N5CCCC5)[C@H](OC(C)=O)[C@@]4(C)CC[C@@H]32)C1` registered a TGI of over 100 µM.
`CC1=NN2C(=N)/C(=C/c3ccco3)C(=O)N=C2S1` displayed a TGI of over 100 µM.
As to `COc1ccc(Nc2nc(NS(=O)(=O)c3cc(C)c(Cl)cc3S)n[nH]2)cc1`, the TGI was over 100 µM.

The test system of the next assay is HT29 colon. Briefly: DTP human tumour cell line panel, 48 h.
`CC(=O)O[C@H]1CC[C@@]2(C)C(=CC[C@H]3[C@@H]4C[C@H](N5CCCC5)[C@H](OC(C)=O)[C@@]4(C)CC[C@@H]32)C1` displayed a TGI of 69.4 µM.
In the case of `CC1=NN2C(=N)/C(=C/c3ccco3)C(=O)N=C2S1`, the TGI is over 100 µM.
Molecule `COc1cccc(C2CC(C)=Nc3c(ccc4c3C(=O)c3ccccc3C4=O)N2)c1O` (centres undefined) yielded a concentration for total growth inhibition (TGI) of over 100 µM.
On the same count and under the same terms, the result for `COc1ccc(Nc2nc(NS(=O)(=O)c3cc(C)c(Cl)cc3S)n[nH]2)cc1` reads over 100 µM.

The subject of the next assay is IGROV1 ovarian. In words: DTP human tumour cell line panel, 48 h.
`CC(=O)O[C@H]1CC[C@@]2(C)C(=CC[C@H]3[C@@H]4C[C@H](N5CCCC5)[C@H](OC(C)=O)[C@@]4(C)CC[C@@H]32)C1` returned a TGI of over 100 µM.
`CC1=NN2C(=N)/C(=C/c3ccco3)C(=O)N=C2S1` had a TGI of over 100 µM.
As to `COc1cccc(C2CC(C)=Nc3c(ccc4c3C(=O)c3ccccc3C4=O)N2)c1O` (centres undefined), the TGI was over 100 µM.
Turning to `COc1ccc(Nc2nc(NS(=O)(=O)c3cc(C)c(Cl)cc3S)n[nH]2)cc1`, the TGI was over 100 µM.

A further assay has as its system K-562 leukemia. Briefly: DTP human tumour cell line panel, 48 h.
On to `CC(=O)O[C@H]1CC[C@@]2(C)C(=CC[C@H]3[C@@H]4C[C@H](N5CCCC5)[C@H](OC(C)=O)[C@@]4(C)CC[C@@H]32)C1`, for which the TGI is over 67.4 µM.
Turning to `CC1=NN2C(=N)/C(=C/c3ccco3)C(=O)N=C2S1`, the TGI was over 100 µM.
Same read-out and setting: to `COc1cccc(C2CC(C)=Nc3c(ccc4c3C(=O)c3ccccc3C4=O)N2)c1O` (centres undefined) belongs over 100 µM; to `COc1ccc(Nc2nc(NS(=O)(=O)c3cc(C)c(Cl)cc3S)n[nH]2)cc1`, over 100 µM.

A further assay has as its system KM12 colon. Briefly: DTP human tumour cell line panel, 48 h.
In turn, `CC(=O)O[C@H]1CC[C@@]2(C)C(=CC[C@H]3[C@@H]4C[C@H](N5CCCC5)[C@H](OC(C)=O)[C@@]4(C)CC[C@@H]32)C1` returned a TGI of over 100 µM.
For `CC1=NN2C(=N)/C(=C/c3ccco3)C(=O)N=C2S1`, the TGI is over 100 µM.
Same read-out and setting: the result for `COc1cccc(C2CC(C)=Nc3c(ccc4c3C(=O)c3ccccc3C4=O)N2)c1O` (centres undefined) reads over 100 µM; that for `COc1ccc(Nc2nc(NS(=O)(=O)c3cc(C)c(Cl)cc3S)n[nH]2)cc1`, over 100 µM.

The test system of a further assay is KM20L2 colon. In words: DTP human tumour cell line panel, 48 h.
As to `COc1cccc(C2CC(C)=Nc3c(ccc4c3C(=O)c3ccccc3C4=O)N2)c1O` (centres undefined), the TGI was over 100 µM.

A further assay has as its system LOX IMVI melanoma. In words: DTP human tumour cell line panel, 48 h.
Molecule `CC(=O)O[C@H]1CC[C@@]2(C)C(=CC[C@H]3[C@@H]4C[C@H](N5CCCC5)[C@H](OC(C)=O)[C@@]4(C)CC[C@@H]32)C1` returned a TGI of over 100 µM.
On the same count and under the same terms, the result for `CC1=NN2C(=N)/C(=C/c3ccco3)C(=O)N=C2S1` reads over 100 µM; that for `COc1ccc(Nc2nc(NS(=O)(=O)c3cc(C)c(Cl)cc3S)n[nH]2)cc1`, over 100 µM.

The test system of another assay is LXFL 529 NSCLC. In words: DTP human tumour cell line panel, 48 h.
The molecule `COc1cccc(C2CC(C)=Nc3c(ccc4c3C(=O)c3ccccc3C4=O)N2)c1O` (centres undefined) registered a TGI of over 100 µM.

Another assay concerns M14 melanoma. In words: DTP human tumour cell line panel, 48 h.
In turn, `CC(=O)O[C@H]1CC[C@@]2(C)C(=CC[C@H]3[C@@H]4C[C@H](N5CCCC5)[C@H](OC(C)=O)[C@@]4(C)CC[C@@H]32)C1` displayed a TGI of 33.9 µM. This lies in the double-digit micromolar range.
Regarding `CC1=NN2C(=N)/C(=C/c3ccco3)C(=O)N=C2S1`, the TGI is over 100 µM.
Turning to `COc1cccc(C2CC(C)=Nc3c(ccc4c3C(=O)c3ccccc3C4=O)N2)c1O` (centres undefined), the TGI is over 100 µM.
`COc1ccc(Nc2nc(NS(=O)(=O)c3cc(C)c(Cl)cc3S)n[nH]2)cc1` had a TGI of over 100 µM.

Another assay deals with M19-MEL melanoma. Briefly: DTP human tumour cell line panel, 48 h.
`COc1cccc(C2CC(C)=Nc3c(ccc4c3C(=O)c3ccccc3C4=O)N2)c1O` (centres undefined) registered a TGI of over 100 µM.

In the next assay the test system is MALME-3M melanoma. In words: DTP human tumour cell line panel, 48 h.
For the molecule `CC(=O)O[C@H]1CC[C@@]2(C)C(=CC[C@H]3[C@@H]4C[C@H](N5CCCC5)[C@H](OC(C)=O)[C@@]4(C)CC[C@@H]32)C1`, the TGI is over 74.3 µM.
The molecule `CC1=NN2C(=N)/C(=C/c3ccco3)C(=O)N=C2S1` yielded a TGI of over 100 µM.
Turning to `COc1cccc(C2CC(C)=Nc3c(ccc4c3C(=O)c3ccccc3C4=O)N2)c1O` (centres undefined), the TGI is over 100 µM.
The molecule `COc1ccc(Nc2nc(NS(=O)(=O)c3cc(C)c(Cl)cc3S)n[nH]2)cc1` showed a TGI of over 100 µM.

In a further assay the test system is MCF7 breast. Briefly: DTP human tumour cell line panel, 48 h.
Consider `CC(=O)O[C@H]1CC[C@@]2(C)C(=CC[C@H]3[C@@H]4C[C@H](N5CCCC5)[C@H](OC(C)=O)[C@@]4(C)CC[C@@H]32)C1`, for which the TGI is over 100 µM.
On to `CC1=NN2C(=N)/C(=C/c3ccco3)C(=O)N=C2S1`, for which the TGI was over 100 µM.
The molecule `COc1ccc(Nc2nc(NS(=O)(=O)c3cc(C)c(Cl)cc3S)n[nH]2)cc1` displayed a TGI of over 100 µM.

A further assay has as its system MDA-MB-231 breast. In words: DTP human tumour cell line panel, 48 h.
`CC(=O)O[C@H]1CC[C@@]2(C)C(=CC[C@H]3[C@@H]4C[C@H](N5CCCC5)[C@H](OC(C)=O)[C@@]4(C)CC[C@@H]32)C1`: the TGI is over 100 µM.
For `CC1=NN2C(=N)/C(=C/c3ccco3)C(=O)N=C2S1`, the TGI is over 100 µM.
Consider `COc1ccc(Nc2nc(NS(=O)(=O)c3cc(C)c(Cl)cc3S)n[nH]2)cc1`, for which the TGI was over 100 µM.

For the next assay, the system named is MDA-MB-435. In words: DTP human tumour cell line panel, 48 h.
The molecule `CC(=O)O[C@H]1CC[C@@]2(C)C(=CC[C@H]3[C@@H]4C[C@H](N5CCCC5)[C@H](OC(C)=O)[C@@]4(C)CC[C@@H]32)C1` yielded a TGI of 82.4 µM.
The molecule `CC1=NN2C(=N)/C(=C/c3ccco3)C(=O)N=C2S1` yielded a TGI of over 100 µM.
For the molecule `COc1ccc(Nc2nc(NS(=O)(=O)c3cc(C)c(Cl)cc3S)n[nH]2)cc1`, the TGI is over 100 µM.

The subject of the next assay is MDA-N. Briefly: DTP human tumour cell line panel, 48 h.
Molecule `CC(=O)O[C@H]1CC[C@@]2(C)C(=CC[C@H]3[C@@H]4C[C@H](N5CCCC5)[C@H](OC(C)=O)[C@@]4(C)CC[C@@H]32)C1` registered a TGI of over 84.4 µM.
On the same count and under the same terms, to `CC1=NN2C(=N)/C(=C/c3ccco3)C(=O)N=C2S1` belongs over 100 µM.
On the same count and under the same terms, to `COc1ccc(Nc2nc(NS(=O)(=O)c3cc(C)c(Cl)cc3S)n[nH]2)cc1` belongs over 100 µM.
